Measurements: patent publication US6197982A, “Vitamin D analogues” (priority 1996, dated 2001)
Entries after “also recorded” stand apart in the source; their conditions may differ. Read-outs that look alike come from different tables or passages of the source.

How the values were obtained:
[1] = test system: HaCaT, human skin keratinocyte cell line; assay: HaCaT antiproliferative assay, 3H-thymidine uptake; assay type: cell-based; settings: for inhibition at 0.1 µM: Homo sapiens, HaCaT, read-out: HaCaT, max. % (maximal inhibition of the cell proliferation); for inhibition at 0.1 µM / maximal inhibition in HaCaT, in words: at 10^-7 M; for maximal inhibition in HaCaT, in words / potency in the HaCaT-assay (psoriasis model), in words: compared with 1,25(OH)2 D3; for HaCaT rel. (ratio between the IC50 value of 1,25(OH)2 D3 and the IC50 value of the compound): relative to 1,25(OH)2 D3, 3H-thymidine incorporation, >1 = more active
Text: (§1) .sunburst. The values are relative to 1,25 (OH)2 D3; a value
(§2) H-thymidine incorporation compared to controls.
.cndot. "HaCaT, max %" indicates the maximal inhibition of the cell
proliferation (maximal efficacy) which is obtainable at the higher
concentration of 10^-7 M of a compound.

mouse spleen lymphocytes = assay: mixed lymphocyte reaction (MLR), 3H-thymidine incorporation; assay type: cell-based, mouse (BALB/c and CB6F1); settings: for immunosuppressive activity (MLR), in words: also in comparison with prior art reference compounds; for MLR rel. (ratio between the IC50 value of 1,25(OH)2 D3 and the IC50 value of the compound): relative to 1,25(OH)2 D3, 72 hours, >1 = more active
Experimental: The mixed cultures of lymphocytes are incubated with the test compounds for 72 hours. Cellular DNA-synthesis is assessed by the incorporation of ^3 H-thymidine in the D
as §1, §2

[2] = calcemic activity in rats in vivo; set-up: species or system rat; key to Calc. rel. (calcemic activity relative to 1,25(OH)2 D3): calcemic activity relative to 1,25(OH)2D3 (=1); settings: for calcemic activity, in words: compared with 1,25(OH)2 D3; for Calc. rel. (calcemic activity relative to 1,25(OH)2 D3): rats in vivo, low values preferred
Experimental: The calcemic activity of the compounds was determined in rats in vivo, as previously described. In table 1, column "Calc., rel.", the calcemic activities of selected compounds (relative to 1,25(OH)2 D3) are listed; as mentioned, low values for the compounds of the present invention are ordinarily preferred.
as §1

calcium metabolism = settings: cited from earlier work; for activity on calcium metabolism: in vivo
[3] = test system: type I diabetes, non-obese diabetic (NOD) mouse; settings: cited from earlier work
cells = settings: cited from earlier work
angiogenesis = settings: cited from earlier work
monocytes/macrophages = settings: cited from earlier work
activated T-lymphocytes = settings: cited from earlier work
B-lymphocytes = settings: in vitro; cited from earlier work
Cytotoxic T-cells = settings: cited from earlier work
[4] = test system: regulatory/suppressor T-lymphocytes; settings: cited from earlier work
immune functions = settings: in vivo; cited from earlier work
HL-60 cancer cells = settings: relative to 1,25(OH)2 D3; cited from earlier work
receptor = settings: relative to 1,25(OH)2 D3; cited from earlier work
skin allograft = settings: mice; cited from earlier work
breast cancer cells [5] = settings: in vitro; cited from earlier work
breast cancer cells [6] = settings: cited from earlier work
[7] = test system: autoimmune disease recurrence in NOD mice; settings: cited from earlier work
transcriptional activity = settings: compared to 1,25(OH)2 D3; cited from earlier work
psoriasis = settings: cited from earlier work
[8] = in vivo; cited from earlier work
graft rejection = settings: cited from earlier work

C=C1/C(=C\C=C2/CCC[C@]3(C)[C@@H]([C@@H](C)C(CCC(C)(C)O)OC)CC[C@@H]23)C[C@@H](O)C[C@@H]1O (single isomer, unassigned) [Compound 101]
inhibition at 0.1 µM [1]: 92% | maximal inhibition in HaCaT, in words [1]: the same, or higher, maximal inhibition at 10^-7 M as 1,25(OH)2 D3 | potency in the HaCaT-assay (psoriasis model), in words [1]: considerably more potent than 1,25(OH)2 D3 | HaCaT rel. (ratio between the IC50 value of 1,25(OH)2 D3 and the IC50 value of the compound) [1]: 28 | immunosuppressive activity (MLR), in words (mouse spleen lymphocytes): potent effects | MLR rel. (ratio between the IC50 value of 1,25(OH)2 D3 and the IC50 value of the compound) (mouse spleen lymphocytes): 175 | calcemic activity, in words [2]: only about half as large as that of 1,25(OH)2 D3 | Calc. rel. (calcemic activity relative to 1,25(OH)2 D3) [2]: 0.45

C=C1/C(=C\C=C2/CCC[C@]3(C)[C@@H]([C@@H](C)C(CCC(C)(C)O)OCC)CC[C@@H]23)C[C@@H](O)C[C@@H]1O (single isomer, unassigned) [Compound 102]
inhibition at 0.1 µM [1]: 85% | maximal inhibition in HaCaT, in words [1]: the same, or higher, maximal inhibition at 10^-7 M as 1,25(OH)2 D3 | potency in the HaCaT-assay (psoriasis model), in words [1]: considerably more potent than 1,25(OH)2 D3 | HaCaT rel. (ratio between the IC50 value of 1,25(OH)2 D3 and the IC50 value of the compound) [1]: 137 | immunosuppressive activity (MLR), in words (mouse spleen lymphocytes): potent effects | MLR rel. (ratio between the IC50 value of 1,25(OH)2 D3 and the IC50 value of the compound) (mouse spleen lymphocytes): 161 | calcemic activity, in words [2]: only about half as large as that of 1,25(OH)2 D3 | Calc. rel. (calcemic activity relative to 1,25(OH)2 D3) [2]: 0.50

C=C1/C(=C\C=C2/CCC[C@]3(C)[C@@H]([C@H](C)CCCC(C)(C)O)CC[C@@H]23)C[C@@H](O)C[C@@H]1O [1,25(OH)2 D3, 1α,25-dihydroxy-vitamin D3]
inhibition at 0.1 µM [1]: 85% | HaCaT rel. (ratio between the IC50 value of 1,25(OH)2 D3 and the IC50 value of the compound) [1]: 1 | MLR rel. (ratio between the IC50 value of 1,25(OH)2 D3 and the IC50 value of the compound) (mouse spleen lymphocytes): 1 | Calc. rel. (calcemic activity relative to 1,25(OH)2 D3) [2]: 1 | hypercalcemia (calcium metabolism; high doses necessary for therapeutic effect on e.g. psoriasis, cancer, immunological disorders): serious side effects due to hypercalcemia | immunoregulation in type I diabetes [3]: effective immunomodulator | differentiation of cells (cells): stimulate the differentiation of cells | excessive cell proliferation (cells): inhibit excessive cell proliferation | angiogenesis (angiogenesis): inhibition of angiogenesis | production/release of cytokines such as IL-1 and TNF (monocytes/macrophages; antigen-stimulated monocytes/macrophages): downregulation | antibacterial activity of monocytes/macrophages (monocytes/macrophages): enhances their antibacterial activity | differentiation of monocytes towards macrophages (monocytes/macrophages): stimulates the differentiation of monocytes towards macrophages | cytokines IL-2 and INF-γ (activated T-lymphocytes): down-regulation of cytokines IL-2 and INF-γ | proliferation of activated T-lymphocytes (activated T-lymphocytes): inhibited | formation of antibodies (IgM and IgG) from B-lymphocytes (B-lymphocytes): indirect inhibition of the formation of antibodies (IgM and IgG) | cytotoxic T-cells (Cytotoxic T-cells): inhibited | regulatory/suppressor T-lymphocytes [4]: stimulated | immune functions in vitamin D deficiency states (immune functions): restores normal immune functions in vitamin D deficiency states in vivo

C=C1/C(=C\C=C2/CCC[C@]3(C)[C@@H]([C@H](C)[C@H](CCC(C)(C)O)OC)CC[C@@H]23)C[C@@H](O)C[C@@H]1O [22S-methoxy-1,25(OH)2 D3]
potency in inducing differentiation of HL-60 cancer cells, times that of 1,25(OH)2 D3 (HL-60 cancer cells): 0.25 times | receptor binding affinity, times that of 1,25(OH)2 D3 (receptor): 0.03 times

C=C1/C(=C\C=C2/CCC[C@]3(C)[C@@H]([C@@H](C)C(O)CCC(C)(C)O)CC[C@@H]23)C[C@@H](O)C[C@@H]1O (some centres unmarked) [CB1297]
inhibition at 0.1 µM [1]: 75% | HaCaT rel. (ratio between the IC50 value of 1,25(OH)2 D3 and the IC50 value of the compound) [1]: 45 | MLR rel. (ratio between the IC50 value of 1,25(OH)2 D3 and the IC50 value of the compound) (mouse spleen lymphocytes): 12

C=C1/C(=C\C=C2/CCC[C@]3(C)[C@@H]([C@H](C)CCCCC(O)(CC)CC)CC[C@@H]23)C[C@@H](O)C[C@@H]1O [CB 966]
skin allograft survival / immunosuppression (skin allograft): prolonged skin allograft survival in mice

C=C1/C(=C\C=C2/CCC[C@]3(C)[C@@H]([C@H](C)/C=C/C=C/C(O)(CC)CC)CC[C@@H]23)C[C@@H](O)C[C@@H]1O [EB 1089]
growth of breast cancer cells (breast cancer cells [5]): inhibits the growth of breast cancer cells in vitro | growth of breast cancer cells (breast cancer cells [6]): inhibits the growth of breast cancer cells in vitro and in vivo | selectivity between the anti-cancer and the calcemic effects (breast cancer cells [6]; in vivo): definite selectivity between the anti-cancer and the calcemic effects in vivo

C=C1/C(=C\C=C2/CCC[C@]3(C)[C@@H]([C@@H](C)C(O)C#CC(O)(CC)CC)CC[C@@H]23)C[C@@H](O)C[C@@H]1O (some centres unmarked) [GS1535]
inhibition at 0.1 µM [1]: 82% | HaCaT rel. (ratio between the IC50 value of 1,25(OH)2 D3 and the IC50 value of the compound) [1]: 313 | MLR rel. (ratio between the IC50 value of 1,25(OH)2 D3 and the IC50 value of the compound) (mouse spleen lymphocytes): 13 | Calc. rel. (calcemic activity relative to 1,25(OH)2 D3) [2]: 8.2

C=C1/C(=C\C=C2/CCC[C@]3(C)[C@@H]([C@@H](C)C(C#CC(O)(CC)CC)OCC)CC[C@@H]23)C[C@@H](O)C[C@@H]1O (some centres unmarked) [GS1720]
inhibition at 0.1 µM [1]: 70% | HaCaT rel. (ratio between the IC50 value of 1,25(OH)2 D3 and the IC50 value of the compound) [1]: 3.9 | MLR rel. (ratio between the IC50 value of 1,25(OH)2 D3 and the IC50 value of the compound) (mouse spleen lymphocytes): 36 | Calc. rel. (calcemic activity relative to 1,25(OH)2 D3) [2]: 1.2

C=C1/C(=C\C=C2/CCC[C@]3(C)[C@@H]([C@@H](C)C(C#CC(O)(CC)CC)OC)CC[C@@H]23)C[C@@H](O)C[C@@H]1O (some centres unmarked) [GS1725]
inhibition at 0.1 µM [1]: 96% | HaCaT rel. (ratio between the IC50 value of 1,25(OH)2 D3 and the IC50 value of the compound) [1]: 4.4 | MLR rel. (ratio between the IC50 value of 1,25(OH)2 D3 and the IC50 value of the compound) (mouse spleen lymphocytes): 150 | Calc. rel. (calcemic activity relative to 1,25(OH)2 D3) [2]: 12

C=C1/C(=C\C=C2/CCC[C@]3(C)[C@@H]([C@@H](C)OCCCC(O)(CC)CC)CC[C@@H]23)C[C@@H](O)C[C@@H]1O [KH 1060, 20-epi-22-oxa-25,26,27-trihomo-1,25-(OH)2 D3]
hypercalcemia / serum calcium (skin allograft): induced hypercalcemia in the highest, and most effective, dose | skin allograft survival / immunosuppression (skin allograft): prolonged skin allograft survival in mice; also recorded: most potent immunosuppressor | effect on calcium and bone [3]: only slight | immunoregulation in type I diabetes [3]: effective immunoregulator | toxicity [7]: toxic in the most effective high doses | delaying autoimmune disease recurrence ([7]; islet transplantation): very effective in delaying autoimmune disease recurrence | transcriptional activity (transcriptional activity): enhanced transcriptional activity

C=C1/C(=C\C=C2/CCC[C@]3(C)[C@@H]([C@H](C)/C=C/[C@@H](O)C4CC4)CC[C@@H]23)C[C@@H](O)C[C@@H]1O [MC903]
inhibition at 0.1 µM [1]: 78% | HaCaT rel. (ratio between the IC50 value of 1,25(OH)2 D3 and the IC50 value of the compound) [1]: 1.8 | MLR rel. (ratio between the IC50 value of 1,25(OH)2 D3 and the IC50 value of the compound) (mouse spleen lymphocytes): 0.6 | Calc. rel. (calcemic activity relative to 1,25(OH)2 D3) [2]: 0.005 | hypercalcemia in patients (psoriasis; psoriasis patients): without hypercalcemia | improvement, % of the patients (psoriasis; without hypercalcemia, psoriasis): 70-80% | metabolism [8]: rapid metabolism | activity on calcium metabolism (calcium metabolism): only moderate activity on calcium metabolism in vivo | activity on calcium metabolism (calcium metabolism; listed as Calcipotriol): low in vivo activity on calcium metabolism

C=C1/C(=C\C=C2/CCC[C@]3(C)[C@@H]([C@@H](C)CCCC(C)(C)O)CC[C@@H]23)C[C@@H](O)C[C@@H]1O [MC1288, 20-epi-1,25(OH)2 D3]
inhibition at 0.1 µM [1]: 76% | HaCaT rel. (ratio between the IC50 value of 1,25(OH)2 D3 and the IC50 value of the compound) [1]: 43 | MLR rel. (ratio between the IC50 value of 1,25(OH)2 D3 and the IC50 value of the compound) (mouse spleen lymphocytes): 150 | Calc. rel. (calcemic activity relative to 1,25(OH)2 D3) [2]: 2.5 | immunosuppression / prevention of graft rejection (graft rejection; rat heart and small bowel transplantation): effective as an immunosuppressant in a rat model of heart and small bowel transplantations, preventing graft rejection; also recorded: valuable immunosuppressive activity in animal transplantation experiments | serum calcium level (graft rejection; rat transplantation model): moderately increased | hypercalcemia / serum calcium (skin allograft): less hypercalcemic than KH 1060 | skin allograft survival / immunosuppression (skin allograft): very effective | transcriptional activity (transcriptional activity): enhanced transcriptional activity
